Assay results from US20050221337A1, “Microarrays and microspheres comprising oligosaccharides, complex carbohydrates or glycoproteins” (priority 2003, published 2005).

What was measured:
cyanovirin-N (CVN) = target: T1, cyanovirin-N (CVN) (Nostoc ellipsosporum, UniProt P81180); experiment: High-mannose oligosaccharide microarray incubated with BODIPY-labeled CVN, fluorescence scan; assay type: binding, Nostoc elliposporum; conditions: for BODIPY-labeled CVN fluorescence (binding) on immobilized saccharide spots: BODIPY-CVN 25 μg mL-1, 1 hour, room temperature, BSA coated slide; for CVN spot fluorescence intensity relative to nonamannoside (normalized to background): higher printed concentrations 1 mM-0.5 mM (FIG. 9)
T1 sequence (P81180 1-101): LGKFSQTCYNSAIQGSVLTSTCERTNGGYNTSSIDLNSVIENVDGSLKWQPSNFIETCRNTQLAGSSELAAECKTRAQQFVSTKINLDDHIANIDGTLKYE
Method: Using the aforementioned thiol terminated linker, a series of high-mannose oligosaccharides were prepared (Scheme 6). Arrays were printed on a BSA coated slide, as above, varying the concentration of printed oligosaccharide, and blocked with 3-mercaptoproprionic acid.
It was of interest to establish whether the microarray platform may serve to probe relative affinities of CVN for the different high-mannose structures. A microarray containing the four oligosaccharide structures was prepared with carbohydrate concentrations ranging from 0.008 mM to 2 mM. […] At lower dilutions, however, this trend is reversed. This discrepancy from the isocalorimetry data can be explained by the density of covalently immobilized saccharide at saturating concentrations. We hypothesize that the size of the nonasaccharide, compared to the other structures immobilized, might sterically occlude reactive sites leading to decreased amounts of immobilized structure. As previously observed, two distinct CVN binding domains can each interact with a single α1,2-linked linear trimannoside. We reason that a higher surface concentrations of 3 permits this multivalent interaction to take place.
Functionalization of slides: SuperAldehyde slides (TeleChem International) were immersed in 50 mL phosphate buffered saline (PBS) containing 1% bovine serum albumin (BSA; w/v) and incubated overnight at room temperature. The slides were rinsed twice with distilled H2O (100 mL), twice with 95% ethanol (50 mL) and then dried under a stream of dry Ar. Thereafter the slides were immersed in 45 mL of anhydrous DMF (Aldrich) containing 65 mg succinimidyl-4-(Nmaleimidomethyl)cyclohexane-1-carboxyiate. (Pierce Chemical) and 100 mM N,N-Diisopropylethylamine (Aldrich). The slides were incubated in this solution for 24 hours at room temperature, washed 4 times with 95% ethanol (50 mL) and then stored in a vacuum dessicator until used for microarray fabrication.
Microarray fabrication: Thiol functionalized carbohydrates were incubated 1 hr at room temperature with 1 equivalent tris-(carboxyethyl)phosphine hydrochloride (TCEP) in 1×PBS, and printed on the maleimide derivitized glass slides using a MicroGrid TAS array printer. Prints were performed at 30% humidity using either a 16-pin or 32-pin format, with a spot size of 120 μm and a distance of 300 μm between the centers of adjacent spots. Thereafter, the slides were stored in a humid chamber at room temperature for 12 hours, washed 2 times with distilled H2O, and then incubated for 1 hour in 1 mM 3-mercaptopropionic acid in PBS (50 mL) to quench all remaining maleimide groups. The slides were washed three times with distilled H2O (50 mL), two times with 95% ethanol (50 mL) and then stored in a vacuum dessicator until used for binding experiments.
Detection of protein-carbohydrate interactions: In experiments involving FITC labeled ConA (Sigma), the lectin was used at 25 μg mL^−1 in 10 mM HEPES-BSA buffer (pH 7.5, 1 mM CaCl2, 1 mM MnCl2, 100 mM NaCl, 1% (w/v) BSA). In experiments involving BODIPY-labeled CVN, the CVN was used at 25 μg mL-1 in 10 mM PBS containing 1% BSA. For all incubations, 0.55 mL of protein solution was applied to the slide using a PC500 CoverWell incubation chamber (Grace BioLabs). Following a 1 hour incubation at room temperature, the slides were washed three times with 50 mL of the same buffer used in the incubation, twice with 50 mL distilled H2O and then centrifuged at 200 g for 5 minutes to ensure complete dryness. To visualize fluorescence, the slides were scanned using an ArrayWoRx fluorescence slide scanner (Applied Precision).

cyanovirin N (CV-N) = cyanovirin N (CV-N) (Nostoc ellipsosporum, UniProt P81180); experiment: Fiber optic microsphere array incubated with BODIPY-labeled CV-N; assay type: binding; conditions: CV-N 50 μg mL^−1, five minutes; excitation 488 nm
Text: Five synthetic carbohydrates (1,3-6) were immobilized on microspheres carrying a unique internal code for each structure. A small aliquot of each of the five dispersions was mixed together and used to microsphere array.
At five minutes the CV-N solution was removed and replaced with a fresh buffer solution. BODIPY excitation wavelength (488 nm) was passed through the optical fiber and BODIPY emission wavelengths were collected on the CCD camera. Three of the five structures (3,5,6) present were bound by CV-N in accordance with isothermal microcalorimetry studies P. H. Seeberger et al. Chemistry and Biology 2002, 9, 1109.

CVN = target: T2, CVN (Nostoc ellipsosporum, UniProt P81180); conditions: recent isothermocalorimetry and NMR study; read-out: Kd of CVN binding; cited from earlier work
T2 sequence (P81180 1-101): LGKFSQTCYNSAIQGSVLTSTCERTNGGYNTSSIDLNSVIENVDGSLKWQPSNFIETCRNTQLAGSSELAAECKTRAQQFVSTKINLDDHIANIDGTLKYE

Concanavalin A (ConA) [1] = target: T3, Concanavalin A (ConA) (Canavalia ensiformis, UniProt P02866); experiment: Carbohydrate microarray incubated with FITC-labeled ConA, fluorescence scan; assay type: binding; conditions: FITC-ConA 25 μg mL^−1, 1 hour, room temperature; 120 μm spots on maleimide-BSA slide
Text: Protein-carbohydrate interactions were examined using the mannose/glucose specific lectin Concanavalin A (ConA). Microarrays were constructed through the maleimide derivatization of BSA coated glass slides to create a thiol-reactive surface (FIG. 1). Thiol derivatized mannose and galactose were printed as 120 μm spots using a microarray printing robot. The remaining maleimide groups were subsequently quenched with a solution of 3-mercaptopropionic acid to render the slides unreactive to cysteine containing proteins. The carbohydrate microarrays were incubated with a solution of FITC-labeled ConA. The arrays were thoroughly rinsed with buffer, dried by centrifugation and scanned with a fluorescence slide scanner. […] Utilizing proteins conjugated to fluorophores of non-overlapping excitation and-emission spectra enabled facile two-color detection. […] See Bidlingmaier, S.; Synder, M. Chemistry and Biology 2002, 9, 400. […]
Detection of protein-carbohydrate interactions: In experiments involving FITC labeled ConA (Sigma), the lectin was used at 25 μg mL^−1 in 10 mM HEPES-BSA buffer (pH 7.5, 1 mM CaCl2, 1 mM MnCl2, 100 mM NaCl, 1% (w/v) BSA). […] To visualize fluorescence, the slides were scanned using an ArrayWoRx fluorescence slide scanner (Applied Precision).

Concanavalin A (ConA) [2] = target: T3, Concanavalin A (ConA)
host cells = conditions: natural and recombinant forms of CVN; cited from earlier work
HIV strains = conditions: natural and recombinant forms of CVN; cited from earlier work

## hexamannoside [compound 5]
cyanovirin-N (CVN)
  BODIPY-labeled CVN fluorescence (binding) on immobilized saccharide spots: fluorescence was detected
  CVN spot fluorescence intensity relative to nonamannoside (normalized to background): higher fluorescence intensities than the nonamannoside
Cyanovirin N (CV-N)
  BODIPY-labeled CV-N binding to oligosaccharide-bearing beads: bound by CV-N

## branched trimannoside [compound 4]
cyanovirin-N (CVN)
  BODIPY-labeled CVN fluorescence (binding) on immobilized saccharide spots: no binding activity

## linear trimannoside [compound 3]
CVN
  Kd: 3480 nM
cyanovirin-N (CVN)
  BODIPY-labeled CVN fluorescence (binding) on immobilized saccharide spots: fluorescence was detected
  CVN spot fluorescence intensity relative to nonamannoside (normalized to background): higher fluorescence intensities than the nonamannoside
Cyanovirin N (CV-N)
  BODIPY-labeled CV-N binding to oligosaccharide-bearing beads: bound by CV-N

## O=C[C@H](O)[C@@H](O)[C@@H](O)[C@H](O)CO [compound 2, galactose]
cyanovirin-N (CVN)
  BODIPY-labeled CVN fluorescence (binding) on immobilized saccharide spots: no binding activity
Concanavalin A (ConA) [1]
  FITC-labeled ConA fluorescence on immobilized saccharide spots: no fluorescence
Concanavalin A (ConA) [2]; labeled ConA 0 to 400 μg mL^−1, very high lectin concentrations (FIG. 18)
  fluorescence of beads in dilution series of labeled ConA: no increase in fluorescence
Concanavalin A (ConA) [2]; labeled ConA 50 μg mL^−1, five minutes
  labeled ConA binding to saccharide-bearing beads (rhodamine fluorescence): no ConA was observed

## nonamannoside [compound 6]
CVN
  Kd: 270 nM
cyanovirin-N (CVN)
  BODIPY-labeled CVN fluorescence (binding) on immobilized saccharide spots: fluorescence was detected
cyanovirin-N (CVN); printed carbohydrate 0.008 mM to 2 mM (FIG. 8)
  CVN fluorescence signal in dilution series microarray at low printed concentrations: showed discernable fluorescence at concentrations where the signals of the other structures were unobservable
Cyanovirin N (CV-N)
  BODIPY-labeled CV-N binding to oligosaccharide-bearing beads: bound by CV-N

B1: CVN: HIV-inactivating 11 kDa protein from Nostoc ellipsosporum that binds high-mannose oligosaccharides of gp120 (protein, UniProt P81180 1-101, looked up)
Cyanovirin-N: LGKFSQTCYNSAIQGSVLTSTCERTNGGYNTSSIDLNSVIENVDGSLKWQPSNFIETCRNTQLAGSSELAAECKTRAQQFVSTKINLDDHIANIDGTLKYE
Host cells
  toxicity to host cells: minimal toxicity to host cells
HIV strains
  inactivation of HIV strains: irreversibly inactivate a wide variety of HIV strains
